Data as given in patent US11179722B2, “Microfluidic method for handling microdrops” (ECOLE POLYTECHNIQUE, priority 2016, dated 2021).

Test system: rat hepatoma, H4IIEC3 cells
Assay type: cell-based
Description: An experiment was conducted to determine, in a single microfluidic system, the concentration beyond which a medicinal product (acetaminophen) becomes toxic to liver cells (rat hepatoma, H4IIEC3 cells).
The microfluidic chamber used containing 252 identical traps on 2 cm^2 in FIGS. 5A and 5B.
The first microdrops 20 of agarose that is liquid at 37° C. (ultra-low gelling), at 0.9 wt % diluted in culture medium containing H4IIEC3 cells, were trapped in the first trapping zones 15, the second trapping zone 18 remaining free. The first microdrops 20 were then cultured for one day to allow the cells to adhere to one another to form a spheroid by first microdrops 20. […]
By taking a fluorescence image before fusion, the different levels of fluorescence that are correlated with the concentration of medicinal product in the second microdrops 25 could be identified. […]
The chamber was perfused with HFE-7500 (fluorinated oil) containing 1H,1H,2H,2H-perfluorooctan-1-ol at a concentration of 20 vol % in order to fuse the microdrops in contact. […] By taking an image of the final matrix, the spheroids whose viability was affected most could be determined. […] Thus, correlating the result for viability and the concentration of acetaminophen in the second microdrops, it could be determined that the range of toxicity of acetaminophen on these hepatic cells is between 10 and 30 mmol/L for a static exposure of 1 day.

For `CC(=O)Nc1ccc(O)cc1` [acetaminophen], the “cell survival as a function of acetaminophen concentration” value was “the higher the concentration of acetaminophen, the fewer cells survive” and the “range of toxicity of acetaminophen on these hepatic cells” value (rat, 1 day) was 10 and 30.
